Data reported in US20030195183A1, “Method for correcting immune system of live body” (priority 2000, published 2003).
Entries after “also recorded” stand apart in the source; their conditions may differ. Read-outs that look alike come from different tables or passages of the source.

What was measured:
Strain 264 E. Coli = test: non-specific resistivity of mice infected with E. Coli; format: in vivo, Strain C57BL6 mice; design: Mean lifetime: unit not given beside the values
Method: Doses of the preparation ranging from 200 to 0.2 μg were injected intraperitoneally at ten-fold intervals in 0.5 ml of physiologic solution to Strain C57BL6 mice two hours before their infecting. Mice were infected with S. Typhi in a dose of 1·10^4 microbial cells; another group of animals was infected with Strain 264 E. coli in a dose of […] microbial cells. Mice infected with the same microbial culture, but receiving no preparation, were used a controls. Lethal outcomes in mice were recorded every day for a period of 10 days.

[1] = tested on: cellular immune response (DHR to ram erythrocytes); test: delayed hypersensitivity reaction (DHR) in mice; format: in vivo
Method: To evaluate the effect of the preparation on cellular immunity reaction, delayed hypersensitivity reaction (DHR) was used. The mice were sensitized by subcutaneous injection of 1·10^7 ram erythrocytes contained in a volume of 20 μl. Doses of the preparation ranging from 0.2 to 2,000 μg were injected at ten-fold intervals simultaneously with sensitizing and shocking dose of the antigen. Shocking dose of ram erythrocytes (1·10^8) was injected under aponeurotic plate of left hind paw on the 5th day after sensitization. Injection of 20 μl of physiologic solution in the right paw served as control. Intensity of inflammatory reaction was recorded 24 hours after the administration of shocking dose of the antigen. For this purpose, the mice were killed and, immediately after this, both paws were amputated at the level of ankle joint and weighed on torsion balance. Reaction index (RI) was determined as the difference of masses of study (S) and control (C) paws using the following formula: [formula]

[2] = tested on: natural killers (CD3−, CD16+ and CD56+); test: cytotoxic activity of natural killers against K-562 cells; format: cell-based, human
Method: Labeled cells of […] of myeloblastoid Strain K-562, as well as mononuclear cells of 10 healthy blood donors and 10 patients with various diseases with low and high levels of cytotoxicity, were used for the study of effects of various concentrations of the preparation on cytotoxic activity of natural killers (CD3^−, CD16^+ and CD56^+).
The used Strain K-562 cells to effector cells ratio was 1:25 (100 μl of labeled cells and 100 μl of mononuclear cells). The studies were carried out using 96-well plates; incubation for 16 to 24 hours in a CO2-incubator at 37° C. was carried out. Then, the contents of the wells was transferred to filters, washed, dried and placed in solution with scintillation liquid with consecutive determination of index using a β-counter. Cytotoxic index (CI) was calculated using the following formula: [formula]
A=the target cells radioactivity in the presence of effector cells;
B=radioactivity after cells treatment with […] (maximum value);
C=radioactivity of target cells in the absence of effector cells.

Method for spleen cell culture: Effects of the compounds on lymphoid cells proliferation and interleukin-2 induction in vitro were evaluated with the use of Strain BalB/c mice weighing 16 to 18 g. Animals of control and study groups were matched by sex and weight. Each dose of the preparation was tested on 10 animals; as a whole, more than 800 mice have been studied.
Spleens of the animals were used for carrying out the immunologic reactions. The organs were cut and homogenized in a glass homogenizer. […] The suspensions were centrifuged in a K23 centrifuge at 1,500 rpm at 4° C. for 10 minutes.
The suspensions were diluted 100-fold with 3% acetic acid contrasted with methylene blue, and cells were counted in Goryaev's chamber. Cell viability was evaluated with aid of 0.1% trypan blue in physiologic solution.

Compound: Nc1cccc2c(=O)[nH][nH]c(=O)c12.[Ca] [calcium salt of 5-amino-2,3-dihydrophthalazine-1,4-dione]
- Mean lifetime (Strain 264 E. Coli; dose 0.2 μg): 2.2
- Number of lethal outcomes, day 1 (Strain 264 E. Coli; dose 0.2 μg i.p., 10 mice): 4
- Number of lethal outcomes, day 3 (Strain 264 E. Coli; dose 0.2 μg i.p., 10 mice): 6
- increase in lifetime of animals infected with E. Coli (Strain 264 E. Coli; dose 0.2 μg, versus controls): 2.2 fold
- Mean lifetime (Strain 264 E. Coli; dose 2 μg): 1.0
- Number of lethal outcomes, day 1 (Strain 264 E. Coli; dose 2 μg i.p., 10 mice): 10
- Mean lifetime (Strain 264 E. Coli; dose 20 μg): 1.0
- Number of lethal outcomes, day 1 (Strain 264 E. Coli; dose 20 μg i.p., 10 mice): 10
- Mean lifetime (Strain 264 E. Coli; dose 200 μg): 1.0
- Number of lethal outcomes, day 1 (Strain 264 E. Coli; dose 200 μg i.p. two hours before infecting, 10 mice): 10
- effects on the resistivity of mice infected with E. Coli (Strain 264 E. Coli; doses 200 to 2 μg): no effects

Compound: Cl.Nc1cccc2c(=O)[nH][nH]c(=O)c12 [5-amino-2,3-dihydrophthalazine-1,4-dione hydrochloride]
- lymphoid cells proliferation (spleen cell culture; 2.5 μg/ml, ConA): 195 ± 27
- lymphoid cells proliferation (spleen cell culture; 2.5 μg/ml, LPS): 251 ± 44
- lymphoid cells proliferation (spleen cell culture; 2.5 μg/ml, no mitogen): 249 ± 93
- lymphoid cells proliferation (spleen cell culture; 12.5 μg/ml, ConA): 178 ± 28
- lymphoid cells proliferation (spleen cell culture; 12.5 μg/ml, LPS): 256 ± 40
- lymphoid cells proliferation (spleen cell culture; 12.5 μg/ml, no mitogen): 369 ± 56
- mitogenic properties (spleen cell culture; 50 μg/ml to 12.5 mg/ml): no mitogenic properties
- lymphoid cells proliferation (spleen cell culture; 50 μg/ml, ConA): 11860 ± 1566
- lymphoid cells proliferation (spleen cell culture; 50 μg/ml, LPS): 13232 ± 928
- lymphoid cells proliferation (spleen cell culture; 50 μg/ml, no mitogen): 2576 ± 237
- lymphoid cells proliferation (spleen cell culture; 500 μg/ml, ConA): 1323 ± 192
- lymphoid cells proliferation (spleen cell culture; 500 μg/ml, LPS): 3870 ± 308
- lymphoid cells proliferation (spleen cell culture; 500 μg/ml, no mitogen): 1763 ± 94
- spontaneous proliferation of spleen cells and proliferation induced by ConA and LPS (spleen cell culture; higher concentrations): inhibited

Compound: Nc1ccc2c(=O)[nH][nH]c(=O)c2c1.[Na] [sodium salt of 6-amino-2,3-dihydrophthalazine-1,4-dione]
- Reaction index ([1]; 2 μg, Strain C57BL6 mice): 19 ± 9
- Reaction index ([1]; 2 μg, Strain CBA mice): 11 ± 8
- Reaction index ([1]; 20 μg, Strain C57BL6 mice): 16 ± 9
- Reaction index ([1]; 20 μg, Strain CBA mice): 10 ± 5
- Reaction index ([1]; 200 μg, Strain C57BL6 mice): 15 ± 6
- Reaction index ([1]; 200 μg, Strain CBA mice): 2 ± 1.5
- development of DHR ([1]; 200 μg, high-reaction Strain CBA mice): inhibition of DHR; also recorded: suppressed
- development of DHR ([1]; 20 to 2 μg, mice of both strains): no effect
- reaction index (trend) ([1]; mice of both strains, as the dose of the preparation decreased): tendency to increase

Compound: CNc1cccc2c(=O)[nH][nH]c(=O)c12.[Na] [sodium salt of 5-methylamino-2,3-dihydrophthalazine-1,4-dione]
- Cytotoxic index level, % (M) ([2]; 2.5 μg/ml, High control level of CI): 57 ± 0.7%
- Cytotoxic index level, % (M) ([2]; 2.5 μg/ml, Low control level of CI): 34 ± 1.3%
- Cytotoxic index level, % (M) ([2]; 2.5 μg/ml, Medium control level of CI): 41.9 ± 0.9%
- CI, % ([2]; 2.5 μg/ml, normal level of CI): 41.9 ± 2.8%
- Cytotoxic index level, % (M) ([2]; 5.0 μg/ml, High control level of CI): 54 ± 0.8%
- Cytotoxic index level, % (M) ([2]; 5.0 μg/ml, Low control level of CI): 30 ± 1.2%
- CI, % ([2]; 5.0 μg/ml, normal level of CI): 38.8 ± 3.1%
- CI, % ([2]; 10.0 μg/ml, normal level of CI): 40.8 ± 3.0%
- CI, % ([2]; 25.0 μg/ml, normal level of CI): 41.4 ± 3.0%
- CI, % ([2]; 50.0 μg/ml, normal level of CI): 39.1 ± 4.0%
- CI, % ([2]; 75.0 μg/ml, normal level of CI): 37.7 ± 4.1%
- CI, % ([2]; 150.0 μg/ml, normal level of CI): 41.0 ± 3.5%
- CI, % ([2]; 300.0 μg/ml, normal level of CI): 39.0 ± 3.1%
- cytotoxicity of natural killers ([2]; 2.5 and 5.0 μg/ml, high initial level of CI): statistically significant inhibition
- functional activity of natural killers ([2]; 2.5 and 5.0 μg/ml, low initial level of CI): statistically significant stimulation
- modification of natural killers cytotoxicity ([2]; 2.5 to 300 μg/ml, normal level of CI): did not cause significant modification
